Laboratory results from PMC11893401, “Pharmacokinetics and pharmacodynamics of insulin lispro 25 versus the original preparation (Humalog®25) in Chinese healthy male volunteers” (Frontiers in Pharmacology, 2025).

Conditions: in vivo
Method: Tolerability and safety were assessed by closely monitoring blood glucose levels and conducting other tests. All adverse events and severe adverse events (SAEs) were evaluated.
The safety of both formulations was evaluated through the assessment of laboratory examinations, 12-lead electrocardiogram, and vital signs.

Row | Infusion site swelling | Substance
1 | 0 Number of Subjects(%) | mixed protamine zinc recombinant human insulin lispro injection [listing 1 of 2 here]
2 | 1(2.0) Number of Subjects(%) | mixed protamine zinc recombinant human insulin lispro injection [listing 2 of 2 here]
